Data reported in paper PMC9822021, “Biological Activity of Amidino-Substituted Imidazo [4,5-b]pyridines” (Molecules, 2022).
Like-named read-outs stand apart in the source and are kept apart here.

Tests used:
[1] = test system: HSV-1 KOS; assay: Antiviral CPE reduction assay; assay type: cell-based, herpes simplex virus-1; conditions: Human alphaherpesvirus 1
[2] = in vitro; conditions: dog
[3] = test system: HCT-116 colorectal carcinoma cells; assay: In vitro antiproliferative activity, MTS proliferation assay; assay type: cell-based; conditions: Homo sapiens, 72 h
From the text: (§1) Human cancer cell lines used in this manuscript, namely Capan-1, HCT-116, NCI-H460, LN-229, HL-60, K-562, Z-138, SW620, PC3 and HeLa, were acquired from the American Type Culture Collection (ATCC, Manassas, VA, USA), while the DND-41 cell line was purchased from the Deutsche Sammlung von Mikroorganismen und Zellkulturen (DSMZ Leibniz-Institut, Germany). Culture media were purchased from Gibco Life Technologies, USA, and supplemented with 10% fetal bovine serum (HyClone, GE Healthcare Life Sciences, Chicago, IL, USA), except for the media for SW620, PC3 and HeLa cells, which were purchased from Sigma.
(§2) Adherent cell lines LN-229, HCT-116, NCI-H460 and Capan-1 cells were seeded at a density between 500 and 1500 cells per well in 384-well tissue culture plates (Greiner). […]. Cells were incubated for 72 h with compounds and were then analyzed using the CellTiter 96® AQueous One Solution Cell Proliferation Assay (MTS) reagent (Promega) according to the manufacturer’s instructions. Absorbance of the samples was measured at 490 nm using a SpectraMax Plus 384 (Molecular Devices), and OD values were used to calculate the 50% inhibitory concentration (IC50). Compounds were tested in two independent experiments. SW620, PC3 and HeLa cells were seeded in 96-well microtiter plates at 1 × 10^4 to 3 × 10^4 cells/mL, depending on the doubling times of the specific cell line. Test agents were then added in five 10-fold dilutions (10^−8 to 10^−4 M). Working dilutions were freshly prepared on the day of testing. After 72 h of incubation, the cell growth rate was evaluated using the MTT assay as described previously. Absorbance of the samples was measured at 570 nm, and OD values were used to calculate the 50% inhibitory concentration (IC50). Each test was performed in quadruplicate in at least two individual experiments.

[4] = test system: K-562 chronic myeloid leukemia cells; assay: as above; assay type: cell-based; conditions: Homo sapiens, K562, 72 h
From the text: as §1, §2

[5] = test system: LN-229 glioblastoma cells; assay: as above; assay type: cell-based; conditions: Homo sapiens, 72 h
From the text: as §1, §2

[6] = test system: NCI-H460 lung carcinoma cells; assay: as above; assay type: cell-based; conditions: Homo sapiens, 72 h
From the text: as §1, §2

[7] = test system: Capan-1 pancreatic adenocarcinoma cells; assay: as above; assay type: cell-based; conditions: Homo sapiens, 72 h
Procedure: (§3) Culture media were purchased from Gibco Life Technologies, USA, and supplemented with 10% fetal bovine serum (HyClone, GE Healthcare Life Sciences, Chicago, IL, USA), except for the media for SW620, PC3 and HeLa cells, which were purchased from Sigma.
(§4) Cells were incubated for 72 h with compounds and were then analyzed using the CellTiter 96® AQueous One Solution Cell Proliferation Assay (MTS) reagent (Promega) according to the manufacturer’s instructions. […] Compounds were tested in two independent experiments. SW620, PC3 and HeLa cells were seeded in 96-well microtiter plates at 1 × 10^4 to 3 × 10^4 cells/mL, depending on the doubling times of the specific cell line. Test agents were then added in five 10-fold dilutions (10^−8 to 10^−4 M). Working dilutions were freshly prepared on the day of testing. After 72 h of incubation, the cell growth rate was evaluated using the MTT assay as described previously. […] Each test was performed in quadruplicate in at least two individual experiments.

[8] = test system: DND-41 acute lymphoblastic leukemia cells; assay: as above; assay type: cell-based; conditions: Homo sapiens, DND41, 72 h
Procedure: as §3, §4

[9] = test system: HL-60 acute myeloid leukemia cells; assay: as above; assay type: cell-based; conditions: Homo sapiens, 72 h
Procedure: as §3, §4

[10] = test system: Z-138 non-Hodgkin lymphoma cells; assay: as above; assay type: cell-based, human; conditions: Homo sapiens, Z-138, 72 h
From the text: as §1, §2

[11] = test system: HeLa cervical carcinoma cells; assay: In vitro antiproliferative activity, MTT assay; assay type: cell-based; conditions: Homo sapiens, 72 h
From the text: as §1, §2

[12] = test system: PC3 prostate carcinoma cells; assay: In vitro antiproliferative activity, MTT assay; assay type: cell-based; conditions: Homo sapiens, 72 h
From the text: as §1, §2

[13] = test system: SW620 colon carcinoma cells; assay: In vitro antiproliferative activity, MTT assay; assay type: cell-based; conditions: Homo sapiens, SW-620, 72 h
From the text: as §1, §2

[14] = test system: E. coli ATCC 25922; assay: Antibacterial activity in vitro, broth microdilution; assay type: cell-based; conditions: Escherichia coli, ATCC25922; broth microdilution (CLSI), 16–24 h at 37 °C
Procedure: (§5) Synthesized compounds were prepared as 10 mM DMSO solutions and tested in a final concentration range of 100–0.2 µM [34].
(§6) Broth microdilution testing was performed according to CLSI (Clinical Laboratory Standards Institute) guidelines. MIC (minimal inhibitory concentration) values were defined as the last tested concentration of the compound at which there was no visible growth of bacteria. Inoculums for each microorganism were prepared using the direct colony suspension method, where broth solutions that achieved turbidity equivalent to 0.5 McFarland standard were additionally diluted 100× with Ca-adjusted MH media (Becton Dickinson).

[15] = test system: S. Pneumoniae ATCC 49619; assay: as above; assay type: cell-based; conditions: Streptococcus pneumoniae, ATCC49619; broth microdilution (CLSI), 16–24 h at 37 °C
Procedure: as §5, §6

[16] = test system: S. aureus ATCC 29213; assay: as above; assay type: cell-based; conditions: Staphylococcus aureus, ATCC29213; broth microdilution (CLSI), 16–24 h at 37 °C
Procedure: as §5, §6

[17] = test system: E. coli Efflux Del; assay: microbe, parasite or virus in culture; assay type: cell-based; conditions: Escherichia coli, read-out: MIC E. coli Efflux Del
Procedure: as §5, §6

[18] = in vitro
[19] = test system: HCoV 229E; assay: Antiviral CPE reduction assay; assay type: cell-based; conditions: Human coronavirus 229E, HEL 299 cells
[20] = test system: HCoV OC43; assay: Antiviral CPE reduction assay; assay type: cell-based, human coronavirus OC43; conditions: Betacoronavirus 1, OC43, HEL 299 cells
[21] = test system: HCoV NL63; assay: Antiviral CPE reduction assay; assay type: cell-based; conditions: Human coronavirus NL63, Huh-7, Huh7 cells
[22] = test system: Influenza H1N1 (A/Ned/378/05); assay: Antiviral CPE reduction assay; assay type: cell-based; conditions: Influenza A virus, MDCK cells
[23] = test system: Influenza H3N2 (A/HK/7/87); assay: Antiviral CPE reduction assay; assay type: cell-based; conditions: Influenza A virus, MDCK cells
[24] = test system: Influenza B (B/Ned/537/05); assay: Antiviral CPE reduction assay; assay type: cell-based; conditions: Influenza B virus, MDCK cells
[25] = test system: RSV A Long; assay: Antiviral CPE reduction assay; assay type: cell-based, respiratory syncytial virus A; conditions: HEL 299 cells
[26] = test system: YFV 17D; assay: microbe, parasite or virus in culture; assay type: cell-based; conditions: Yellow fever virus, Huh-7, read-out: EC50 YFV 17D Huh7
[27] = test system: Zika mr766; assay: Antiviral CPE reduction assay; assay type: cell-based; conditions: Zika virus, Huh-7, Huh7 cells
[28] = test system: Sindbis; assay: Antiviral CPE reduction assay; assay type: cell-based; conditions: Sindbis virus, Huh-7, Huh7 cells
[29] = in vitro; conditions: human
[30] = in vitro; conditions: human; remark: listed apart in the source
[31] = human respiratory syncytial virus, HEL 299, CPE reduction
[32] = human respiratory syncytial virus, CPE reduction

SMILES	CC50 [2] [µM]	IC50 [3] [µM]	IC50 [4] [µM]	IC50 [5] [µM]	IC50 [6] [µM]	IC50 [7] [µM]	IC50 [8] [µM]	IC50 [9] [µM]	IC50 [10] [µM]	IC50 [11] [µM]	IC50 [12] [µM]	IC50 [13] [µM]	MIC [14] [µM]	MIC [15] [µM]	MIC [16] [µM]	MIC [17] [µM]	melting point [°C]	EC50 [19] [µM]	EC50 [20] [µM]	EC50 [21] [µM]	also measured
O=c1[nH]c(=O)n([C@H]2C[C@H](O)[C@@H](CO)O2)cc1/C=C/Br [BVDU, brivudine, reference compound]	> 100	–	–	–	–	–	–	–	–	–	–	–	–	–	–	–	–	–	–	–	EC50 [1]: 0.05 µM
c1ccc(-c2nc3ncccc3[nH]2)cc1 [Compound 5, 2-Phenyl-1H-imidazo[4:5-b]pyridine]	79.2 ± 29.4	> 100	> 100	> 100	> 100	98 ± 2.9	> 100	81.7 ± 26	> 100	13.6 ± 3.4	> 100	> 100	> 64	> 64	> 64	> 64	290 to 291	–	–	–	CC50 [18]: > 30 µM
Brc1cnc2nc(-c3ccccc3)[nH]c2c1 [Compound 7, 6-Bromo-2-phenyl-1H-imidazo[4,5-b]pyridine]	> 100	–	–	–	–	–	–	–	–	–	–	–	> 64	> 64	> 64	> 64	> 300	> 100	> 100	> 100	EC50 [22]: > 100 µM; EC50 [23]: > 100 µM; EC50 [24]: > 100 µM; EC50 [25, 31]: 21 ± 5.9 µM; EC50 [1]: > 100 µM; EC50 [26]: > 100 µM; EC50 [27]: > 100 µM; EC50 [28]: > 100 µM; CC50 [29]: > 100 µM; CC50 [30]: > 100 µM
Cl.N=C(N)c1ccc(-c2nc3ncc(Br)cc3[nH]2)cc1 [Compound 10, 4-(6-Bromo-1H-imidazo[4,5-b]pyridin-2-yl)benzimidamide Hydrochloride]	> 100	> 100	> 100	> 100	> 100	> 100	> 100	> 100	> 100	1.3 ± 0.26	≥ 100	0.4 ± 0.1	> 64	> 64	> 64	> 64	> 300	> 100	> 100	> 100	EC50 [22]: 71.4 ± 24.3 µM; EC50 [23]: 79.2 ± 14.7 µM; EC50 [24]: 94 ± 5.2 µM; EC50 [25, 32]: 86.9 ± 18.6 µM; EC50 [1]: > 100 µM; EC50 [26]: > 100 µM; EC50 [27]: > 100 µM; EC50 [28]: > 100 µM; CC50 [29]: > 100 µM; CC50 [30]: > 100 µM
Cl.c1cnc2nc(-c3ccc(C4=NCCN4)cc3)[nH]c2c1 [Compound 11, 2-(4-(4,5-Dihydro-1H-imidazol-2-yl)phenyl)-1H-imidazo[4,5-b]pyridine Hydrochloride]	> 100	> 100	> 100	81.7 ± 17.4	84.9 ± 21.4	74.5 ± 36.1	48.8 ± 12.5	> 100	76.4 ± 33.4	11.1 ± 3.5	≥ 100	12.1 ± 3.7	> 64	> 64	> 64	> 64	> 300	–	–	–	CC50 [18]: > 30 µM
Brc1cnc2nc(-c3ccc(C4=NCCCN4)cc3)[nH]c2c1.Cl [Compound 15, 6-Bromo-2-(4-(1,4,5,6-tetrahydropyrimidin-2-yl)phenyl)-1H-imidazo[4,5-b]pyridine Hydrochloride]	> 100	> 100	> 100	73.5 ± 0.8	> 100	> 100	17 ± 1.3	> 100	29.1 ± 16.5	7.3 ± 0.4	8.6 ± 0.7	3.5 ± 0.2	> 64	> 64	> 64	> 64	> 300	–	–	–	CC50 [18]: > 30 µM
Cn1c(-c2ccc(C#N)cc2)nc2cccnc21 [Compound 17, 4-(3-Methyl-3H-imidazo[4,5-b]pyridin-2-yl)benzonitrile]	> 100	> 100	> 100	> 100	> 100	> 100	> 100	> 100	> 100	> 100	> 100	> 100	> 64	> 64	> 64	> 64	183 to 185	> 100	> 100	> 100	EC50 [22]: > 100 µM; EC50 [23]: > 100 µM; EC50 [24]: > 100 µM; EC50 ([25]; CPE reduction): 79 ± 29.7 µM; EC50 [25, 31]: 58 µM; EC50 [1]: > 100 µM; EC50 [26]: > 100 µM; EC50 [27]: > 100 µM; EC50 [28]: > 100 µM; CC50 [29]: > 100 µM; CC50 [30]: > 100 µM
CCC(CC)COC(=O)[C@H](C)N[P@](=O)(OC[C@H]1O[C@@](C#N)(c2ccc3c(N)ncnn23)[C@H](O)[C@@H]1O)Oc1ccccc1 [Remdesivir, remdesivir, reference compound]	–	–	–	–	–	–	–	–	–	–	–	–	–	–	–	–	–	0.06	0.06	0.03	EC50 [25, 32]: 0.03 ± 0.01 µM; EC50 [26]: 6.2 µM; EC50 [27]: 0.7 µM; EC50 [28]: > 10 µM; CC50 [29]: > 10 µM; CC50 [30]: > 10 µM
NC(=O)c1ncn([C@@H]2O[C@H](CO)[C@@H](O)[C@H]2O)n1 [Ribavirin, ribavirin, reference compound]	80.2 ± 18.6	–	–	–	–	–	–	–	–	–	–	–	–	–	–	–	–	82.6	170	> 250	EC50 [22]: 10.5 ± 3.8 µM; EC50 [23]: 4 ± 2.7 µM; EC50 [24]: 2.8 ± 1.8 µM; EC50 [25, 31]: 10.8 ± 2.1 µM; EC50 [26]: > 250 µM; EC50 [27]: > 250 µM
